Data: patent EP3275434A1, “AN EXTENDED RELEASE ORAL DOSAGE FORM” (SANDOZ AG, priority 2016, dated 2018)

Key:
[1] = blood plasma concentration of veliparib against time, immediate release 400 mg twice a day; format: in vivo; conditions: 10 x 40 mg twice a day, daily dose 800 mg
Excerpt: The term peak plasma concentration is Cmax in blood plasma observed after administration. The term trough plasma concentration is Cmin in blood plasma observed after administration and just prior to the administration of a subsequent dose in a given dosage regimen. The veliparib plasma concentration can be determined according to the approach described in Mostafa et al., Cancer Chemother Pharmacol (2014) 74: 583-591. Pharmacokinetic terms have the typical meaning as recognized in the art and in case of doubt are to be interpreted according to the European Pharmacopoeia Version 8.8.
The present inventors have realized that the In-vivo plasma concentration profile of veliparib when administered as immediate release dosage forms at 400 mg BID, can be such that the blood plasma fluctuations are quite high. […] Thus, undesireably high peak concentrations are obtained in order to keep the trough concentration above a therapeutic threshold. In contrast, the extended release dosage form of the present invention enables the provision of therapeutically effective trough concentrations at all times without attaining such a high peak concentration. Moreover, when the extended release dosage form of the present invention is administered twice daily, even an overall dose reduction can be obtained while at the same time keeping the through concentration above the therapeutic threshold.
In this experiment 10 tablets containing 40 mg veliparib each prepared in accordance with Comparative example 1 are administered twice a day, 12h apart, to meet a daily dose of 800 mg. A plot displaying the pharmacokinetic behaviour of veliparib is obtained by plotting the blood plasma concentration of veliparib against time (Figure 1). […] The Cmax/Cmin ratio for veliparib is almost 7.

[2] = cited from earlier work

Cmax/Cmin ratio [1]: about 7
Cmin [1]: around 0.5 µg/ml
Cmax ([1]; plasma, po, 400 mg): ~3500 ng/mL
SMILES: C[C@]1(c2nc3c(C(N)=O)cccc3[nH]2)CCCN1 [veliparib, 2-((R)-2-Methylpyrrolidin-2-yl)-1H-benzimidazole-4-carboxamide]
side effects reported ([2]; immediate release tablet at 2 x 400 mg per day): anemia, fatigue, nausea, pain and cough
elimination half-life ([2]; in vivo): about 6 hours
